Seven compounds from US9567333B2, “Triazolopyridyl compounds as aldosterone synthase inhibitors” (Merck Sharp & Dohme Corp., priority 2011, dated 2017) can be followed below.

One assay concerns the target human CYP11B1 (Homo sapiens (Human), UniProt P15538). As to the kind of experiment: V79-Human-CYP11B1 cell assay. It is filed as cell-based. To be noted: V79 cells stably expressing human CYP11B1; 250 nM 11-deoxycortisol substrate; cortisol by HTRF. On the procedure: (§1) Methods for V79-Human-CYP11B2 and V79-Human-CYP11B1 Assays: V79 cell lines stably expressing the either the human CYP11B2 or the human CYP11B1 enzyme were generated using a standard transfection protocol. V79 cells were transfected with plasmids pTriEx3-Hygro-hCyp11B2 or pTriEx3-Hygro-hCyp11B1 using Lipofectamine2000 reagent. V79 cells that stably express the human CYP11B2 or human CYP11B1 enzyme were selected for and maintained in DMEM supplemented with 10% FBS and 400 µg/mL hygromycin for ˜2 weeks. Single cell clones were generated by infinite dilution in DMEM supplemented with 10% FBS and 400 µg/mL hygromycin until single colonies were obtained. Clones V79-hCYP11B2-CLE9 and V79-hCYP11B1-8CL7, were determined to produce the most aldosterone and cortisol, respectively, and were selected for inhibitor screening. For testing of inhibitors, cells were harvested at 80% confluency with 0.05% Trypsan-EDTA, washed once in PBS, and reconstituted in DMEM+0.1% BSA media at a cell concentration of 600,000 cells/mL for the CYP11B2 assay and 280,000 cells/ml for the CYP11B1 assay. 25 μL of cells were added to a 384 well tissue culture treated plate and mixed with 0.3 μL of inhibitor or DMSO (1% final DMSO concentration) for 1 hour at 37° C., 5% CO2. After pre-incubation with inhibitor, the reaction was initiated by adding 5 μL of substrate (final concentration of 125 nM 11-deoxycorticosterone for the CYP11B2 assay or 250 nM 11-deoxycortisol for the CYP11B1 assay). The reaction was carried out for 3 hours at 37° C., 5% CO2 and was stopped by harvesting the supernatants. The amount of product in the supernatant (aldosterone for CYP11B2 assay and cortisol for the CYP11B1 assay) was measured using HTRF-based assay kit (Aldosterone HTRF-CisBio #64ALDPEB, Cortisol HTRF-CisBio #63IDC002-CORT). IC50s for the inhibitor were determined by plotting the amount of product formed against the concentration of inhibitor using sigmoidal dose-response curve (variable slope) fit in GraphPad.

In another assay the target is human CYP11B2 (Homo sapiens (Human), UniProt P19099). The experiment in a line: V79-Human-CYP11B2 cell assay. It is filed as cell-based. The following applies: V79 cells stably expressing human CYP11B2; 125 nM 11-deoxycorticosterone substrate; aldosterone by HTRF. How it is done:
as §1

human CYP11B2, sequence (P19099 25-503): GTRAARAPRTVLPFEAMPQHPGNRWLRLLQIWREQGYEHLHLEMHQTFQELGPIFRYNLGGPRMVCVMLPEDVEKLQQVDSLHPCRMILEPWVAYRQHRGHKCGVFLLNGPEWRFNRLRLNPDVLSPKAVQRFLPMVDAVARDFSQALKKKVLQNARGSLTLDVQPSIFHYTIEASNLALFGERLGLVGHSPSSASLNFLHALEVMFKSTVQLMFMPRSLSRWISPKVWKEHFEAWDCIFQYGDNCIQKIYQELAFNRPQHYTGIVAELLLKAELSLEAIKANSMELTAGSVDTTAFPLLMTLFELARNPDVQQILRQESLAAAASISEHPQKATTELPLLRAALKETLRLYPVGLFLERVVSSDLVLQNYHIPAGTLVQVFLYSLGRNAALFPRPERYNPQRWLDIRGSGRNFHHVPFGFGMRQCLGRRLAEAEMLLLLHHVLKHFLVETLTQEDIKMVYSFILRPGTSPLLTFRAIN
human CYP11B1, sequence (P15538 25-503): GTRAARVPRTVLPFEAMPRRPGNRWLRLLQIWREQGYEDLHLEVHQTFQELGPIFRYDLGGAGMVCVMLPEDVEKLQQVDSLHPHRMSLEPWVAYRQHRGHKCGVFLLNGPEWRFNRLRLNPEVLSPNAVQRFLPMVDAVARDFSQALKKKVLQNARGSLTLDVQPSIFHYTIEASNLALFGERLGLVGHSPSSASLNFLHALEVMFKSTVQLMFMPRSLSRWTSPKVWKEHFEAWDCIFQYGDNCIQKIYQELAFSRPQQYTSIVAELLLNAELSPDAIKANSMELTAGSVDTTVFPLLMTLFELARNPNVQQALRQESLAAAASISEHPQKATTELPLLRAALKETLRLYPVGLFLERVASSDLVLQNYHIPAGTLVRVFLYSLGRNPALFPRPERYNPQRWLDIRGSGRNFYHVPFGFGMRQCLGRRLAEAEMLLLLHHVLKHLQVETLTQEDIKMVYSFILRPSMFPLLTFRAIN

As to `c1ccc2c(-c3nc4ccccn4n3)cncc2c1` [Example 5, 4-([1,2,4]triazolo[1,5-a]pyridin-2-yl)isoquinoline], the IC50 against human CYP11B1 is greater than 8330 nM; against human CYP11B2 it was 138 nM.

`Clc1cccn2nc(-c3cncc4ccccc34)nc12` [Example 7, 4-(8-chloro-[1,2,4]triazolo[1,5-a]pyridin-2-yl)isoquinoline]: the values for the half-maximal inhibitory concentration (IC50) against human CYP11B1 and against human CYP11B2 were greater than 8330 nM and 171 nM, respectively.

As to `CC(C)(O)c1cncc(-c2nc3ccc(F)cn3n2)c1` [Example 12, 2-(5-(6-fluoro-[1,2,4]triazolo[1,5-a]pyridin-2-yl)pyridin-3-yl)propan-2-ol], the IC50 against human CYP11B1 is greater than 8330 nM; at human CYP11B2, 1070 nM.

Turning to `Cc1cccc2nc(-c3cncc(Br)c3)nn12` [Example 13, 2-(5-bromopyridin-3-yl)-5-methyl-[1,2,4] triazolo[1,5-a]pyridine], the concentration for half-maximal inhibition (IC50) against human CYP11B1 is greater than 8330 nM; against human CYP11B2 it was 884 nM.

For the compound `Fc1cc(F)c2nc(-c3cncc4ccccc34)nn2c1` [Example 18, 4-(6,8-difluoro-[1,2,4]triazolo[1,5-a]pyridin-2-yl)isoquinoline], the 50% inhibitory concentration (IC50) at human CYP11B1 is greater than 8330 nM; against human CYP11B2, 126 nM.

Turning to `Fc1ccn2nc(-c3cncc4ccccc34)nc2c1` [Example 20, 4-(7-fluoro-[1,2,4]triazolo[1,5-a]pyridin-2-yl)isoquinoline], the results for the half-maximal inhibitory concentration (IC50) against human CYP11B1 and at human CYP11B2 were 1080 nM and 22 nM, respectively.

For the compound `Fc1ccc2nc(-c3cncc4ccccc34)nn2c1` [Example 21, 4-(6-fluoro-[1,2,4]triazolo[1,5-a]pyridin-2-yl)isoquinoline], the results for the IC50 against human CYP11B1 and on human CYP11B2 were 2150 nM and 46 nM, respectively.
